# Residues, ends and D or L forms follow the SMILES beside them.
# Key:
# Type in all cases: in vivo
# [1] = tested on: patients with diabetes mellitus; experiment: Clinical application in patients with diabetes mellitus (Example 8)
# Description: The investigation was carried out in 36 patients aged from 16 to 83 years (7 men, 29 women). In 23 patients there was diagnosed type 1 diabetes, in 13 patients—type 2 diabetes. The disease duration varied from 1 year to 30 years. 32 patients received insulin. The majority of the patients suffering diabetes mellitus entered the hospital decompensated. Blood glucose level in these patients on an empty stomach oscillated from […]; the glycosylated haemoglobin—from 7.8 to 12.7%. All the patients were prescribed a rigid diet. All the patients were stratified randomly into 2 groups, with respect to age, sex, duration and stage of the disease (Table 7). Alongside with standard method of treatment 16 patients were prescribed Lys-Glu-Asp-Trp-NH2 tetrapeptide in dose of 10 μg (in 1 ml of 0.9% NaCl solution) intramuscularly once a day for 10 days. 4 patients suffering type 2 diabetes mellitus were prescribed together with standard treatment course Lys-Glu-Asp-Trp-NH2 tetrapeptide in dose of 100 μg (1 tablet) twice a day before meals during 10 days. Patients of the control group were administered with 1 ml of 0.9% of NaCl solution as a placebo following the same scheme.
# [2] = tested on: rats with alloxan diabetes; experiment: Course of alloxan diabetes in rats, prophylaxis and treatment variant (Example 3)
# Description: The experiment was carried out on 15 white mongrel male rats with the average body weight 375±35 g. The animals were divided randomly into 2 groups. Control animals were administered once a day intravenously with 0.3 ml of 0.9% NaCl solution, while the main group animals were administered with LysGlu-Asp-Trp-NH2 tetrapeptide in dose of 3 μg (in 0.3 ml of 0.9% NaCl solution) per rat during 7 days. After that all the animals were subject to single intravenous administration of 1 ml of alloxan solution (“Spofa”) in dose 35 mg/kg. Lys-Glu-Asp-Trp-NH2 tetrapeptide had been administered during 3 days following alloxan administration. After that […] were subject to the second Lys-Glu-Asp-Trp-NH2 tetrapeptide course from 18 day till day 28 (total 11 days) in the same dose.
# [3] = tested on: rats with alloxan diabetes; experiment: Insulin level in blood of rats with alloxan diabetes (Example 5)
# Description: The experiment was held on 18 white mongrel male rats weighing on average 375±35 g. After the estimation of the blood glucose level all the animals were divided at random into 2 groups. Then all the animals were subjected to single intravenous injection with 1 ml of alloxan solution (“Spofa”) in dose of 35 mg/kg. 15 days later control animals were daily intraperitonealy administered with 0.3 ml of 0.9% NaCl solution, rats of the main group—with tetrapeptide Lys-Glu-Asp-Trp-NH2 in dose of 3 μg (in 0.3 ml of 0.9% NaCl) per rat during 11 days.
# [4] = tested on: rats with alloxan diabetes; experiment: Course of alloxan diabetes in rats, treatment variant (Example 2)
# Description: After estimation of glucose concentration in the blood all the animals were divided at random into 2 groups. Then all the animals were exposed to single intravenous administration 1 ml of alloxan solution (“Spofa”) in dose 35 mg/kg. In 15 days control animals were administered once a day intraperitoneally with 0.3 ml 0.9% NaCl solution, rats of the main group were administered with LysGlu-Asp-Trp-NH2 in dose 3 μg (in 0.3 ml of 0.9% NaCl solution) per rat during 11 days.
# [5] = tested on: rats with alloxan diabetes; experiment: Tetrapeptide in different doses on the course of alloxan diabetes in rats (Example 4); settings: for Glucose concentration in blood, initial level: before alloxan; for Glucose concentration in blood, after tetrapeptide administration, day 1 / Glucose concentration in blood, after tetrapeptide administration, day 4 / Glucose concentration in blood, after tetrapeptide administration, day 7 / Glucose concentration in blood, after tetrapeptide administration, day 14 / Glucose concentration in blood, after tetrapeptide administration, day 21: 7 days; for Decrease of glucose level: dose 10 μg
# Description: The study was performed on 23 white mongrel male rats weighing on average […]. All the animals were subject to single intravenous administration of 1 ml of alloxan (“Spofa”) solution in dose of […].
# Then the animals were divided at random into 3 groups. Control animals were intraperitoneally administered with 0.3 ml of 0.9% NaCl solution once a day. Rats of the second and third group were administered with tetrapeptide Lys-Glu-Asp-Trp-NH2 in dose of 1 μg (in 0.1 ml of 0.9% NaCl solution) and 10 μg (in 1.0 ml of 0.9% NaCl solution) per rat during 7 days.
# [6] = tested on: rats with alloxan diabetes; experiment: Glucose tolerance test (sugar curve) in alloxan diabetes rats (Example 6); settings: 44th day after course completion
# Description: The study was conducted on 13 male rats, enrolled in the previous tests (treatment variants—44 days after completion of tetrapeptide Lys-Glu-Asp-Trp-NH2 administration). 7 healthy rats with the same body weight constituted a separate group. All the animals were administered intravenously with 1 ml of 2% glucose solution, after that glucose concentration in their blood was estimated.
# [7] = tested on: rats with alloxan diabetes; experiment: Insulin effect on blood glucose level in alloxan diabetes rats after tetrapeptide (Example 7)
# Description: The study was conducted on 13 male rats, enrolled in the previous trial (treatment variant—28 days after completion of Lys-Glu-Asp-Trp-NH2 tetrapeptide administration). 8 healthy rats of the similar body weight constituted a separate group. All the animals were administered intravenously with insulin (0.3 units), and glucose concentration in their blood was estimated hereafter.
# [8] = 16 insulin-treated patients, 10 μg i.m. once a day, 10 days
# [9] = 3 μg per rat i.p. daily, 11 days
# [10] = before alloxan and before treatment
smiles,measurement,setting,value
"NCCCC[C@H](N)C(=O)N[C@@H](CCC(=O)O)C(=O)N[C@@H](CC(=O)O)C(=O)N[C@@H](Cc1c[nH]c2ccccc12)C(N)=O [Tetrapeptide Lys-Glu-Asp-Trp-NH2, lysyl-glutamyl-aspartyl-tryptophane amid] (H-KEDW-NH2)","Reduction of the insulin daily dose, on average",[1]; 8 patients out of 16 treated with insulin,8 units
same,Decreased insulin dose necessary to achieve compensation (number of patients),[1]; [8],8
same,Increased insulin dose necessary to achieve compensation (number of patients),[1]; [8],2
same,The same insulin dose necessary to achieve compensation (number of patients),[1]; [8],6
same,Decrease of daily insulin dose as compared to the initial level,[1]; Patient K.,26 units
same,Coagulogram indices,"[1]; Patient K., at discharge",pronounced improvement in coagulogram indices
same,Blood glucose level on an empty stomach at discharge,"[1]; Patient K., type 2, 10 μg i.m. 10 days, 18th day, 10 μmol/l on admission",5.9 mM
same,Daily dose of insulin at discharge,"[1]; Patient K., 82 units on admission",56 units
same,Blood glucose level after completion of the treatment course,[1]; Patient L.,remained within the norm
same,Dose of diabeton,[1]; Patient L.,reduced two-fold
same,Glucose level on an empty stomach on the second day,"[1]; Patient L., type 2, oral 100 μg twice a day with 2 diabeton tablets, 11 μmol/l on admission",6 mM
same,Decrease of daily insulin dose as compared to the initial level,[1]; Patient M.,8 units
same,Daily norm of insulin at discharge,"[1]; Patient M., 40 units on admission",32 units
same,Compensation in patients treated with oral anti-diabetic medicine,[1]; tetrapeptide in tablets,full compensation
same,Reduction of the dose of insulin,"[1]; tetrapeptide in tablets, 100 μg twice a day, 10 days",25 units
same,Reduction of dose of oral anti-diabetic preparations,"[1]; tetrapeptide in tablets, patients on oral anti-diabetic medicine",reduced practically two-fold
same,"Glucose concentration in blood, after alloxan administration, day 28",[2]; 2nd course (from 18th till 28th day),77.3 ± 1.3 mg %
same,Blood glucose level after the second course,"[2]; 28th, 33rd, 40th day",complete normalisation of the blood glucose level
same,"Glucose concentration in blood, after alloxan administration, day 5",[2]; after 1st course,247.3 ± 17.2 mg %
same,"Glucose concentration in blood, after alloxan administration, day 14",[2]; after 1st course,261.5 ± 39.5 mg %
same,"Glucose concentration in blood, after alloxan administration, day 33",[2]; after 2nd course,90.7 ± 5.2 mg %
same,"Glucose concentration in blood, after alloxan administration, day 40",[2]; after 2nd course,107.7 ± 6.4 mg %
same,"Glucose concentration in blood, initial level",[2]; before treatment,76.8 ± 1.1 mg %
same,"Glucose concentration in blood, after alloxan administration, day 21",[2]; during 2nd course (from 18th till 28th day),159.0 ± 32.6 mg %
same,"Glucose concentration in blood, 7 days from the onset of tetrapeptide administration (1 course)","[2]; healthy rats before alloxan, 3 μg per rat daily",94.0 ± 0.8 mg %
same,Effect on blood glucose level of healthy animals,"[2]; healthy rats, 7 days, before alloxan",did not lead to the decrease of blood glucose level
same,"Insulin content in blood, 8 days since the onset of tetrapeptide administration",[3]; [9],3.1 ± 1.1 mkIU/ml
same,"Insulin content in blood, after the completion of tetrapeptide administration, day 1",[3]; [9],3.6 ± 0.7 mkIU/ml
same,"Insulin content in blood, after the completion of tetrapeptide administration, day 9",[3]; [9],3.2 ± 0.5 mkIU/ml
same,"Insulin content in blood, after the completion of tetrapeptide administration, day 18",[3]; [9],4.3 ± 0.5 mkIU/ml
same,"Insulin content in blood, after the completion of tetrapeptide administration, day 28",[3]; [9],4.1 ± 0.6 mkIU/ml
same,"Insulin content in blood, after the completion of tetrapeptide administration, day 44",[3]; [9],3.9 ± 1.1 mkIU/ml
same,Insulin content in the blood relative to control group,"[3]; 8 days of administration, higher than control",3.9 fold
same,Amount of insulin in the blood at following estimations,"[3]; after course completion, no insulin in controls",13-18%
same,"Insulin content in blood, initial level",[3]; [10],23.8 ± 2.8 mkIU/ml
same,"Insulin content in blood, 15 days after alloxan administration",[3]; before start of tetrapeptide,1.5 ± 0.4 mkIU/ml
same,"Glucose concentration in the blood, 8 days since the onset of tetrapeptide administration",[4]; [9],254.5 ± 16.2 mg %
same,"Glucose concentration in the blood, upon completion of peptide administration, day 1",[4]; [9],222.5 ± 10.3 mg %
same,"Glucose concentration in the blood, upon completion of peptide administration, day 9",[4]; [9],183.9 ± 10.5 mg %
same,"Glucose concentration in the blood, upon completion of peptide administration, day 18",[4]; [9],236.7 ± 10.3 mg %
same,"Glucose concentration in the blood, upon completion of peptide administration, day 28",[4]; [9],221.5 ± 11.2 mg %
same,"Glucose concentration in the blood, upon completion of peptide administration, day 44",[4]; [9],210.8 ± 9.3 mg %
same,"Glucose concentration in the blood, upon completion of peptide administration, day 58",[4]; [9],198.9 mg %
same,"Glucose concentration in the blood, initial level",[4]; [10],81.1 ± 3.8 mg %
same,"Glucose concentration in the blood, 15 days after alloxan administration",[4]; before start of tetrapeptide,333.6 ± 12.4 mg %
same,Lethality decrease,"[4]; vs control, alloxan diabetes animals",two-fold lethality decrease
same,Decrease of the blood glucose level throughout the whole study,"[4]; vs control, range 30-47.7%",38.4%
same,"Glucose concentration in blood, after alloxan administration, day 7",[5]; 1 mkg group,245.6 ± 12.3 mg %
same,"Glucose concentration in blood, after alloxan administration, day 14",[5]; 1 mkg group,261.7 ± 12.3 mg %
same,"Glucose concentration in blood, initial level",[5]; 1 mkg group,80.6 ± 2.8 mg %
same,"Glucose concentration in blood, after tetrapeptide administration, day 1",[5]; 1 mkg per rat,228.3 ± 10.7 mg %
same,"Glucose concentration in blood, after tetrapeptide administration, day 4",[5]; 1 mkg per rat,244.4 ± 12.2 mg %
same,"Glucose concentration in blood, after tetrapeptide administration, day 7",[5]; 1 mkg per rat,269.4 ± 8.6 mg %
same,"Glucose concentration in blood, after tetrapeptide administration, day 14",[5]; 1 mkg per rat,268.8 ± 12.4 mg %
same,"Glucose concentration in blood, after tetrapeptide administration, day 21",[5]; 1 mkg per rat,272.5 ± 9.9 mg %
same,"Glucose concentration in blood, after alloxan administration, day 7",[5]; 10 mkg group,247.2 ± 14.0 mg %
same,"Glucose concentration in blood, after alloxan administration, day 14",[5]; 10 mkg group,252.2 ± 7.9 mg %
same,"Glucose concentration in blood, initial level",[5]; 10 mkg group,83.9 ± 3.4 mg %
same,"Glucose concentration in blood, after tetrapeptide administration, day 1",[5]; 10 mkg per rat,193.3 ± 6.7 mg %
same,"Glucose concentration in blood, after tetrapeptide administration, day 4",[5]; 10 mkg per rat,212.2 ± 7.3 mg %
same,"Glucose concentration in blood, after tetrapeptide administration, day 7",[5]; 10 mkg per rat,205.6 ± 8.4 mg %
same,"Glucose concentration in blood, after tetrapeptide administration, day 14",[5]; 10 mkg per rat,240.0 ± 7.9 mg %
same,"Glucose concentration in blood, after tetrapeptide administration, day 21",[5]; 10 mkg per rat,248.3 ± 13.5 mg %
same,Decrease of glucose level,[5]; day 1,30%
same,Decrease of glucose level,[5]; day 7,26%
same,"Glucose tolerance test, 5 min after glucose administration",[6],301.2 ± 10.5
same,"Glucose tolerance test, 30 min after glucose administration",[6],205.1 ± 11.8
same,"Glucose tolerance test, 60 min after glucose administration",[6],201.5 ± 13.2
same,"Glucose tolerance test, 120 min after glucose administration",[6],164.2 ± 12.8
same,"Glucose tolerance test, initial level",[6]; before i.v. 1 ml of 2% glucose,210.8 ± 9.3
same,"Glucose concentration in blood, initial level","[7]; 28th day after course completion, before insulin",221.5 ± 11.2 mg %
same,"Glucose concentration in blood, 30 minutes after insulin administration","[7]; 28th day after course completion, insulin 0.3 units i.v.",123.6 ± 8.3 mg %
same,Decrease of the glucose level after insulin administration as compared to the control group,[7]; alloxan diabetes animals,nearly two-fold decrease of the glucose level

# From US20070142298A1, “Tetrapeptide regulating blood glucose level in diabetes mellitus” (SANKT-PETERBURGSKAYA OBSCHESTVENNAYA ORGANIZATSIYA …, priority 2003, published 2007)
